The target in experiment [1] is T1, BTK kinase (Homo sapiens, UniProt Q06187).
T1 construct: purchased Invitrogen PV3363
The experiment in a line: BTK kinase activity inhibition assay (ADP-Glo). Type of experiment: biochemical. As to conditions: ATP 50 μM. As to the method:
The BTK kinase (purchased from Invitrogen, No.: PV3363) was diluted with reaction buffer (40 mM Tris-HCl, pH 7.5; 20 mM MgCl2, 0.1 mg/ml BSA; 1 mM DTT; 2 mM MnCl2) to 2 times of the final concentration (which is 1.1 ng/μL) and added with 5 μL/well to a 96-well plate. The compounds of the present invention were serial diluted with deionized water to four times (i.e., 40 μM, 4 μM, 0.4 μM, 80 nM, 16 nM, 3.2 nM, respectively) of the final concentrations (10 μM, 1 μM, 0.1 μM, 20 nM, 4 nM, 0.8 nM, respectively), and added at 2.5 μL/well to the test wells of the 96-well plate. After incubation at 25° C. for 10 minutes, ATP (50 μM) (purchased from Promega, No.: V9102) and 0.2 μg/μL of Poly E4Y1 (purchased from Sigma, No.: P0275-25MG) were added with 2.5 μL/well and incubated at 25° C. for 120 minutes. After the reaction was completed, 10 μL of the ADP-Glo reagent (ADP-Glo™ kinase assay kit, purchased from Promega, No.: V9102) was added to each well, and reacted at 25° C. for 40 minutes. Then 20 μL of the ADP-Glo kinase detection reagent was added to each well and reacted at 25° C. for 30 minutes. The kinase activity was detected by luminescence using the ADP-Glo kinase assay kit according to the manufacture's instruction, and IC50 values of the compounds of the present invention were calculated.

Experiment [2] deals with T2, JAK3 kinase (Homo sapiens, UniProt P52333).
T2 construct: purchased SignalChem J03-11G
T2 sequence (P52333 781-1124 limits assumed): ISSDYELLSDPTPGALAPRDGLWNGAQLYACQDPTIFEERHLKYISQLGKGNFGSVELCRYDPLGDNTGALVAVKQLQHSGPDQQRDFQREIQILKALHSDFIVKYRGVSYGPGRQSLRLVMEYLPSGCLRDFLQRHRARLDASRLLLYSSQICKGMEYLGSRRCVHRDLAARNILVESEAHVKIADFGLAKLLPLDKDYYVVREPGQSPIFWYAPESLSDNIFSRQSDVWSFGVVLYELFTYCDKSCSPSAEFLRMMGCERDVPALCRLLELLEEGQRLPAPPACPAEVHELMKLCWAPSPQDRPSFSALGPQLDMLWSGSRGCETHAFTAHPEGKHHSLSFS
The experiment in a line: JAK3 kinase activity inhibition assay (ADP-Glo). Format: biochemical. As to conditions: ATP 10 μM. As to the method:
The JAK3 kinase (purchased from SignalChem, No.: J03-11G) was diluted with reaction buffer (40 mM Tris-HCl, pH 7.5; 20 mM MgCl2, 0.1 mg/ml BSA; 1 mM DTT) to 2 times of the final concentration (which is 0.5 ng/μL) and added with 5 μL/well to a 96-well plate. The compounds of the present invention were serial diluted with deionized water to four times (i.e., 40 μM, 4 μM, 0.4 μM, 80 nM, 16 nM, 3.2 nM, respectively) of the final concentrations (10 μM, 1 μM, 0.1 μM, 20 nM, 4 nM, 0.8 nM, respectively), and added with 2.5 μL/well to the test wells of the 96-well plate. After incubation at 25° C. for 10 minutes, 10 μM of ATP (purchased from Promega, No.: V9102) and 0.2 μg/μL of Poly E4Y1 (purchased from Sigma, No.: P0275-25MG) were added at 2.5 μL/well and reacted at 25° C. for 60 minutes. After the reaction was completed, 10 μL of the ADP-Glo reagent (ADP-Glo™ kinase assay kit, purchased from Promega, No.: V9102) was added to each well and reacted at 25° C. for 40 minutes. Then 20 μL of the ADP-Glo kinase detection reagent was added to each well and reacted at 25° C. for 30 minutes. The kinase activity was detected by luminescence using the ADP-Glo kinase assay kit according to the manufacture's instruction, and IC50 values of the compounds of the present invention were calculated.

T1 sequence (Q06187 whole entry): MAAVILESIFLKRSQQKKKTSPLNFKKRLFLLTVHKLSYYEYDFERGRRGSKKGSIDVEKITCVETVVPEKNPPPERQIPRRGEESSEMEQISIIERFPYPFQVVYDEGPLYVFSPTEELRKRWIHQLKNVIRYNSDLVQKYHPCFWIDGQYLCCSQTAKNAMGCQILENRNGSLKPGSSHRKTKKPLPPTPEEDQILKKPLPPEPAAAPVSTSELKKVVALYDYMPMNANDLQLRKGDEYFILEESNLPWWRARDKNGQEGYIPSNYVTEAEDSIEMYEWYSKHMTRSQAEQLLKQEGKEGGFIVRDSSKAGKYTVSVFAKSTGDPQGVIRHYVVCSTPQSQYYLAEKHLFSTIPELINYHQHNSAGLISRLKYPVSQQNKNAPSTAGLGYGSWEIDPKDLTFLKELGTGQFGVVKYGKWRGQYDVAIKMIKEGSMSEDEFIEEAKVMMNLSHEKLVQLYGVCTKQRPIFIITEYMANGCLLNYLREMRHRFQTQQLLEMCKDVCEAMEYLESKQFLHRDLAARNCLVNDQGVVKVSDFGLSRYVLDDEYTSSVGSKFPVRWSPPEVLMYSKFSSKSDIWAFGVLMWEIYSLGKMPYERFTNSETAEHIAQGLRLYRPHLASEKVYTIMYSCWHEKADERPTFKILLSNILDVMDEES

As to `C=CC(=O)N1CC[C@@H](Nc2nc(Nc3cnn(C4CCOCC4)c3)nc3ccsc23)C1` [Example 125], the half-inhibitory concentration (IC50) in experiment [1] is at most 50 nM; in experiment [2], at most 10 nM. Compound `C=CC(=O)N[C@H]1CC[C@@H](Nc2nc(Nc3cnn(CCN(C)C)c3)nc3ccsc23)CC1` [Example 17] yielded an IC50 in experiment [1] of 50 to 100 nM. Regarding `C=CC(=O)N[C@H]1CC[C@@H](Nc2nc(Nc3ccc(N4CCOCC4)cc3)nc3ccsc23)CC1` [Example 33], the IC50 in experiment [1] is 50 to 100 nM. As for `C=CC(=O)N1CCC[C@@H](Nc2nc(Nc3cnn(C4CCC4)c3)nc3ccsc23)C1` [Example 129], the half-maximal inhibitory concentration (IC50) is at most 50 nM in experiment [1] and 10 to 100 nM in experiment [2]. In experiment [1], `C=CC(=O)N[C@H]1CC[C@@H](Nc2nc(Nc3ccc(N4CCN(C)CC4)c(C)c3)nc3ccsc23)CC1` [Example 36] came in with a concentration for half-maximal inhibition (IC50) of 50 to 100 nM. `C=CC(=O)N[C@H]1CC[C@@H](Nc2nc(Nc3ccc(NC4CCN(C(C)C)CC4)c(F)c3)nc3ccsc23)CC1` [Example 47] displayed a half-inhibitory concentration (IC50) in experiment [1] of at most 50 nM. On to `C=CC(=O)N1CC[C@@H](Nc2nc(Nc3cccs3)nc3ccsc23)C1` [Example 76], for which the IC50 in experiment [1] was at most 50 nM; in experiment [2], 10 to 100 nM.

Take `C=CC(=O)N1CCC[C@@H](Nc2nc(Nc3cnn(C4CCCC4)c3)nc3ccsc23)C1` [Example 130]: the IC50 in experiment [1] was at most 50 nM; in experiment [2], 10 to 100 nM. Take `C=CC(=O)N1CC[C@@H](Nc2nc(Nc3cn[nH]c3)nc3ccsc23)C1` [Example 77]: the concentration for half-maximal inhibition (IC50) in experiment [1] was at most 50 nM; in experiment [2], 10 to 100 nM. For the compound `C=CC(=O)N[C@H]1CC[C@@H](Nc2nc(Nc3ccc(N4CCN(C)CC4)cc3)nc3ccsc23)CC1` [Example 34], in experiment [1], the half-inhibitory concentration (IC50) was at most 50 nM. With `C=CC(=O)N1CC(CNc2nc(Nc3cnn(C(C)=O)c3)nc3ccsc23)C1` [Example 116], the half-inhibitory concentration (IC50) is at most 50 nM in experiment [1] and 10 to 100 nM in experiment [2]. On to `C=CC(=O)N[C@H]1CC[C@@H](Nc2nc(Nc3ccc(OC4CCN(C)CC4)c(F)c3)nc3ccsc23)CC1` [Example 49], for which the IC50 in experiment [1] is at most 50 nM. With `C=CC(=O)N1CCC[C@@H](Nc2nc(Nc3cccs3)nc3ccsc23)C1` [Example 84], the IC50 in experiment [1] is at most 50 nM; in experiment [2] it was 10 to 100 nM. For the compound `C=CC(=O)N1CC[C@@H](Nc2nc(Nc3cnn(CCOC)c3)nc3ccsc23)C1` [Example 122], the IC50 in experiment [1] was at most 50 nM; in experiment [2] it was at most 10 nM. `C=CC(=O)N[C@H]1CC[C@@H](Nc2nc(Nc3ccc(C(=O)N4CCN(C)CC4)cc3)nc3ccsc23)CC1` [Example 50]: the IC50 in experiment [1] is at most 50 nM.

As for `C=CC(=O)N1CCC[C@@H](Nc2nc(Nc3cnn(C)c3)nc3sccc23)C1` [Example 103], the IC50 in experiment [1] was at most 50 nM; in experiment [2], 100 to 1000 nM. `C=CC(=O)N[C@H]1CC[C@@H](Nc2nc(Nc3cn[nH]c3)nc3ccsc23)CC1` [Example 4] showed an IC50 in experiment [1] of at most 50 nM. The compound `C#CC(=O)N[C@H]1CC[C@@H](Nc2nc(Nc3cnn(C)c3)nc3ccsc23)CC1` [Example 60, N-(cis-4-((2-((1-methyl-1H-pyrazol-4-yl)amino)thieno[3,2-d]pyrimidin-4-yl)amino)cyclohexyl)propynamide] registered an IC50 in experiment [1] of at most 50 nM. On to `C=CC(=O)N1CCC[C@@H](Nc2nc(Nc3cc(C)ns3)nc3sccc23)C1` [Example 104], for which the IC50 is at most 50 nM in experiment [1] and 10 to 100 nM in experiment [2]. The like results for `C=CC(=O)N1CC[C@@H](Nc2nc(Nc3cnn(C(C)C)c3)nc3ccsc23)C1` [Example 119] were, in that order, at most 50 nM and 10 to 100 nM.

For the compound `C=CC(=O)N1CC[C@@H](Nc2nc(Nc3cnn(C)c3)nc3ccsc23)C1` [Example 75], the IC50 was at most 50 nM in experiment [1] and 10 to 100 nM in experiment [2].

Consider `C=CC(=O)N1CCC[C@@H](Nc2nc(Nc3cc(C)ns3)nc3ccoc23)C1` [Example 96], for which the 50% inhibitory concentration (IC50) in experiment [1] was at most 50 nM; in experiment [2] it was at most 10 nM. For `C=CC(=O)NC1CCC(Nc2nc(Nc3cnn(C)c3)nc3ccsc23)CC1` (stereo not drawn) [Example 2], the concentration for half-maximal inhibition (IC50) in experiment [1] was at most 50 nM.

Turning to `C=CC(=O)N1CC(CNc2nc(Nc3cnoc3)nc3ccsc23)C1` [Example 73], the results for the IC50 in experiment [1] and in experiment [2] were at most 50 nM and 10 to 100 nM, respectively. In the same order, the values of `C=CC(=O)N1CC[C@@H](Nc2nc(Nc3cnn(CCN(C)C)c3)nc3ccsc23)C1` [Example 124] are at most 50 nM and 10 to 100 nM. The like results for `C=CC(=O)N1CC(CNc2nc(Nc3cnn(C)c3)nc3ccsc23)C1` [Example 61, 1-(3-(((2-((1-methyl-1H-pyrazol-4-yl)amino)thieno[3,2-d]pyrimidin-4-yl)amino)methyl)azetidin-1-yl)prop-2-en-1-one] were, in that order, at most 50 nM and at most 10 nM. In the case of `C=CC(=O)N1CCC[C@@H](Nc2nc(Nc3cn[nH]c3)nc3ccsc23)C1` [Example 81], the IC50 is at most 50 nM in experiment [1] and 10 to 100 nM in experiment [2]. For the compound `C=CC(=O)N[C@H]1CC[C@@H](Nc2nc(Nc3cnn(C4CCCC4)c3)nc3ccsc23)CC1` [Example 13], the concentration for half-maximal inhibition (IC50) in experiment [1] is at most 50 nM. With `C=CC(=O)N[C@H]1CC[C@@H](Nc2nc(Nc3cnn(CCF)c3)nc3ccsc23)CC1` [Example 16], the IC50 in experiment [1] is at most 50 nM. `C=CC(=O)N[C@H]1CC[C@@H](Nc2nc(Nc3ccc(NC4CCN(C)CC4)c(C)c3)nc3ccsc23)CC1` [Example 45]: the half-maximal inhibitory concentration (IC50) in experiment [1] lay in the range of 50 to 100 nM.

For `C=CC(=O)N[C@H]1CC[C@@H](Nc2nc(Nc3ccc(N4CCN(C)CC4)c(F)c3)nc3ccsc23)CC1` [Example 35], the half-inhibitory concentration (IC50) in experiment [1] was at most 50 nM. In experiment [1], `C=CC(=O)N[C@H]1CC[C@@H](Nc2nc(Nc3ccc(NC4CCN(C)CC4)cc3)nc3ccsc23)CC1` [Example 43] returned an IC50 of at most 50 nM. Compound `C=CC(=O)N[C@H]1CC[C@@H](Nc2nc(Nc3ccc(C(=O)NC4CCN(C)CC4)c(F)c3)nc3ccsc23)CC1` [Example 52] registered a half-inhibitory concentration (IC50) in experiment [1] of 50 to 100 nM. Same read-out and setting: the same measure for `C=CC(=O)N[C@H]1CC[C@@H](Nc2nc(Nc3cnn(C)c3)nc3ccsc23)CC1` [Example 1, N-(cis-4-((2-((1-methyl-1H-pyrazol-4-yl)amino)thieno[3,2-d]pyrimidin-4-yl)amino)cyclohexyl)acrylamide]: at most 50 nM; for `C=CC(=O)N[C@H]1CC[C@@H](Nc2nc(Nc3cnn(CCOC)c3)nc3ccsc23)CC1` [Example 15]: at most 50 nM. `C=CC(=O)N[C@H]1CC[C@@H](Nc2nc(Nc3ccc(C(=O)N4CCN(C)CC4)c(F)c3)nc3ccsc23)CC1` [Example 51] showed an IC50 in experiment [1] of at most 50 nM. As for `C=CC(=O)N[C@H]1CC[C@@H](Nc2nc(Nc3cc(C)ns3)nc3ccsc23)CC1` [Example 8], in experiment [1], the IC50 is at most 50 nM. The same measure, in the same setting: the same measure for `C=CC(=O)N[C@H]1CC[C@@H](Nc2nc(Nc3ccc(NC4CCN(C)CC4)c(Cl)c3)nc3ccsc23)CC1` [Example 46]: at most 50 nM; for `C=CC(=O)N[C@H]1CC[C@@H](Nc2nc(Nc3cnn(C4CCC4)c3)nc3ccsc23)CC1` [Example 12]: at most 50 nM. Consider `C=CC(=O)N[C@H]1CC[C@@H](Nc2nc(Nc3cnn(C)c3)nc3ccoc23)CC1` [Example 57, N-(cis-4-((2-((1-methyl-1H-pyrazol-4-yl)amino)furo[3,2-d]pyrimidin-4-yl)amino)cyclohexyl)acrylamide], for which the IC50 in experiment [1] was at most 50 nM. With `C=CC(=O)N1CC(CNc2nc(Nc3cnn(C)c3)nn3cccc23)C1` [Example 136], the half-maximal inhibitory concentration (IC50) in experiment [1] is at most 50 nM. In turn, `C=CC(=O)N[C@H]1CC[C@@H](Nc2nc(Nc3ccc(OCCN4CCN(C)CC4)c(F)c3)nc3ccsc23)CC1` [Example 31] yielded an IC50 in experiment [1] of at most 50 nM. Take `C=CC(=O)N[C@H]1CC[C@@H](Nc2nc(Nc3ccc(NC4CCN(C)CC4)c(F)c3)nc3ccsc23)CC1` [Example 44]: the half-inhibitory concentration (IC50) in experiment [1] was at most 50 nM. As for `C=CC(=O)N[C@H]1CC[C@@H](Nc2nc(Nc3ccc(OCCN4CCCCC4)c(F)c3)nc3ccsc23)CC1` [Example 30], the half-maximal inhibitory concentration (IC50) in experiment [1] was 50 to 100 nM. Take `C=CC(=O)N[C@H]1CC[C@@H](Nc2nc(Nc3cnn(CCO)c3)nc3ccsc23)CC1` [Example 14]: in experiment [1], the IC50 was at most 50 nM. `C=CC(=O)N[C@H]1CC[C@@H](Nc2nc(Nc3cnn(CCN4CCOCC4)c3)nc3ccsc23)CC1` [Example 18]: the 50% inhibitory concentration (IC50) in experiment [1] was at most 50 nM.

The record behind these values is US10273242B2, “Compound inhibiting activities of BTK and/or JAK3 kinases” (BEIJING HANMI PHARMACEUTICAL CO., LTD., priority 2013, dated 2019).
